Common to all, as to assay type: physicochemical
A short description of series [1]: Hygroscopicity at 93% relative humidity (weight gain, HPLC assay). Here is the method:
(§1) A small amount of the polymorphic Form C crystal (about 10 mg) was weighed into a weighing bottle and placed in a chamber with controlled relative humidity for 4 weeks and the percentage of water absorbed was calculated form the weight gain. The sample was also assayed by HPLC against an external standard on a Waters 2690 HPLC at 276 nm with a Zorbax SB-Phenyl column. The mobile phase is a gradient run at 1 mL/min consisting of acetonitrile/water with 10 mM heptane sulfonic acid, 0.1% phosphoric acid in both. The gradient is run as 10% ACN to 100% in 30 min. The data was processed using Waters Millennium software version 3.2. The thermal stability also was determined at 60° C. and at 40° C./75% relative humidity. The purity of the sample was determined by assaying weighed aliquots by HPLC against an external standard.

A short description of series [2]: Polymorph transformation in the presence of moisture.
Series [3] is described as follows: Differential scanning calorimetry (DSC), thermal properties.
Series [4] is described as follows: Thermal stability on storage at 60° C. and at 40° C./75% relative humidity (HPLC assay against external standard). To be noted: for ASSAY: HPLC. The method, then:
as §1

Series [5] in a line: Accelerating rate calorimetric (ARC) determination (adiabatic calorimetry conditions).

Each structure is given as a SMILES string. Where two headings read alike, the source gives them in different places.

Consider `[N-]=[N+]=N[C@]1(CO)O[C@@H](n2ccc(N)nc2=O)[C@H](O)[C@@H]1O` [Ia], for which the “hygroscopicity relative to the free base” value in series [1] is recorded as “less hygroscopic than the free base”. Further, the “weight gain on storage” value in series [1] (stored at high relative humidity) is recorded as “No weight gain”.

Consider `[N-]=[N+]=N[C@]1(CO)O[C@@H](n2ccc(N)nc2=O)[C@H](O)[C@@H]1O` [Form B of Ia], for which the polymorphic transformation result in series [2] is reported as “transformed into Form C”. Further, the “exothermic decomposition onset temperature” value in series [3] is “approximately 189 °C”; in series [3] (listed as Form B polymorph of Ia), 189 °C.

As to `[N-]=[N+]=N[C@]1(CO)O[C@@H](n2ccc(N)nc2=O)[C@H](O)[C@@H]1O` [Form C of Ia], the APPEARANCE entry is listed as “white powder” in series [1] (93% RH, 4 weeks); “white powder” in series [4] (40° C./75% RH, 1 week); “white powder” in series [4] (40° C./75% RH, 2 weeks); “white powder” in series [4] (40° C./75% RH, 4 weeks); “white powder” in series [4] (60° C., 1 week); “white powder” in series [4] (60° C., 2 weeks). For the same compound, the APPEARANCE result in series [4] (60° C., 4 weeks) was “white powder”. Moreover, the POLYMORPH entry is “Form C” in series [1] (93% RH, 4 weeks); “Form C” in series [4] (40° C./75% RH, 1 week); “Form C” in series [4] (40° C./75% RH, 4 weeks); “Form C” in series [4] (60° C., 1 week); “Form C” in series [4] (60° C., 4 weeks). The “WEIGHT GAIN” value in series [1] (93% RH, 4 weeks) was found to be 0%. The ASSAY in series [1] (93% RH, 4 weeks, HPLC) came to 99.9; in series [4] (40° C./75% RH, 1 week) it was 99.9; in series [4] (40° C./75% RH, 2 weeks) it was 99.9; in series [4] (40° C./75% RH, 4 weeks) it was 99.9; in series [4] (60° C., 1 week), 99.9; in series [4] (60° C., 2 weeks) it was 99.9. In series [4] (60° C., 4 weeks), this compound yielded an ASSAY of 99.9. Further, in series [1] (93% relative humidity, 4 weeks), the hygroscopicity entry was “not hygroscopic”. The thermal stability entry in series [4] (at 40 and 60° C. over the duration of the assay) is reported as “thermal stable”. For the same compound, the “Adiabatic Temperature Rise” value in series [5] was 265 °C. Moreover, in series [5], the “corrected exothermic decomposition onset temperature” value turned out to be 152 °C. The “enthalpy of decomposition exotherm” value in series [5] was -132 cal/g. Further, the entries for the “exothermic decomposition onset temperature” value in series [3] and in series [3] (listed as Form C polymorph of Ia) were “approximately 210 °C” and 210 °C, respectively.

Take `[N-]=[N+]=N[C@]1(CO)O[C@@H](n2ccc(N)nc2=O)[C@H](O)[C@@H]1O` [Form A of Ia]: in series [2], the polymorphic transformation entry is given as “transformed into Form C”. The “exothermic decomposition onset temperature” value in series [3] is “approximately 185 °C”; in series [3] (listed as Form A polymorph of Ia), 185 °C.

For the origin of these results see patent publication US6864244B2, “Anhydrous crystalline 1-[4(S)-azido-2(S),3(R)-dihydroxy-4-(hydroxymethyl)-1(R)-cyclopentyl]cytosine hemisulfate as useful as an antiviral agent” (Roche Palo Alto LLC, priority 2002, dated 2005).
